PubChem BioAssay AID624458 (Sanford-Burnham Center for Chemical Genomics, 2012)
Several values for one entry are separate records, joined by “and”; a condition that tells them apart may be missing. Equal entries are not always repeated. Activity calls are given as the source filed them.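 How the source made its calls: active means mean IC50 of at most 10 µM; inactive means the rest.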

System: H9c2 cardiomyoblasts, H2O2 injury protection, ATPLite luminescence, 2 h
Assay: cardioprotective compounds against peroxide injury – H9c2 cells, H2O2, set 2, SAR follow-up (AID 624458)

| SMILES | IC50 |
| --- | --- |
| CCOC(=O)c1cccc(NC(=O)c2cc(-c3cc(OC)c(OC)c(OC)c3)nc3ccccc23)c1 | 3.06 µM |
| COc1cccc(CNC(=O)c2cc(-c3ccc(OC)c(OC)c3)nc3ccccc23)c1 | 5.82 µM |
| COc1ccc2c(c1OC)C(=O)N1c3ccccc3C(=O)N(c3cccc(C(F)(F)F)c3)C21 (centres undefined) | 13.8 µM (inactive) |
| COc1ccc(-c2cc(C(=O)Nc3cccc(C(C)=O)c3)c3ccccc3n2)cc1OC | 8.37 µM |
| COc1cc(-c2cc(C(=O)Nc3cccc(Cl)c3)c3ccccc3n2)cc(OC)c1OC | 58.4 µM (inactive) |
| COc1cc(-c2cc(C(=O)Nc3cccc(F)c3)c3ccccc3n2)cc(OC)c1OC | 10.6 µM (inactive) |
| O=C1c2ccccc2N2C(=O)c3ccccc3C2N1c1ccccc1 (centres undefined) | 61.1 µM (inactive) |
| COc1ccc2c(c1OC)C(=O)N1c3ccccc3C(=O)N(c3ccccc3)C21 (centres undefined) | 11 µM (inactive) |
| COc1ccc2c(c1OC)C(=O)N1c3ccccc3C(=O)N(c3ccc(Br)cc3)C21 (centres undefined) | 1.97 µM |
| COc1ccc2c(c1OC)C(=O)N1c3ccccc3C(=O)N(c3cccc(F)c3)C21 (centres undefined) | 6.91 µM |
| COc1cc(-c2cc(C(=O)Nc3cccc(C(C)=O)c3)c3cc(Cl)ccc3n2)cc(OC)c1OC | 6.13 µM |
| COc1cc(-c2cc(C(=O)Nc3ccc(C(C)=O)cc3)c3ccccc3n2)cc(OC)c1OC | 3.53 µM |
| CCN(CC(=O)Nc1ccc(OC)cc1)C(=O)c1cc(-c2cc(OC)c(OC)c(OC)c2)nc2ccccc12 | 3.89 µM |
| COc1ccc2c(c1OC)C(=O)N1c3ccccc3C(=O)N(c3ccc(C)cc3)C21 (centres undefined) | 0.959 µM |
| COc1ccc2c(c1OC)C(=O)N1c3ccccc3C(=O)N(Cc3ccccc3Cl)C21 (centres undefined) | 1.2 µM |
| COc1ccc2c(c1OC)C(=O)N1c3ccccc3C(=O)N(c3cccc(Cl)c3)C21 (centres undefined) | 12.1 µM (inactive) |
| COc1ccc2c(c1OC)C(=O)N1c3ccccc3C(=O)N(c3cccc(C)c3)C21 (centres undefined) | 17.8 µM (inactive) |

| SMILES | IC50 |
| --- | --- |
| COc1cc(-c2cc(C(=O)Nc3cccc(C(C)=O)c3)c3ccccc3n2)cc(OC)c1OC | 1.41 µM and 4.26 µM |
| COc1ccc(N2C(=O)c3ccccc3N3C(=O)c4c(ccc(OC)c4OC)C23)cc1 (centres undefined) | 12.8 µM (inactive) |
| CC(=O)c1cccc(NC(=O)c2cc(-c3ccccc3)nc3ccccc23)c1 | 7.04 µM |
| COc1cccc(N2C(=O)c3ccccc3N3C(=O)c4ccccc4C23)c1 (centres undefined) | 40.5 µM (inactive) |
| O=C1c2ccccc2N2C(=O)c3ccccc3C2N1c1cccc(Br)c1 (centres undefined) | > 79 µM (inactive) |
| COc1cc(-c2cc(C(=O)Nc3cccc(C(F)(F)F)c3)c3ccccc3n2)cc(OC)c1OC | 75.3 µM (inactive) |
| COc1cc(-c2cc(C(=O)Nc3ccccc3)c3ccccc3n2)cc(OC)c1OC | 10.1 µM (inactive) |
| COc1ccc(-c2cc(C(=O)Nc3cccc(C(C)=O)c3)c3ccccc3n2)cc1 | 5.6 µM |
| COc1ccc2c(c1OC)C(=O)N1c3ccccc3C(=O)N(c3cccc(Br)c3)C21 (centres undefined) | 1.75 µM and 12.5 µM (inactive) |
| COc1cccc(-c2cc(C(=O)Nc3cccc(C(C)=O)c3)c3ccccc3n2)c1 | 6.74 µM |
| COc1cccc(CNC(=O)c2cc(-c3cc(OC)c(OC)c(OC)c3)nc3ccccc23)c1 | 4.8 µM |
| COc1cccc(N2C(=O)c3ccccc3N3C(=O)c4c(ccc(OC)c4OC)C23)c1 (centres undefined) | 6.89 µM |
| COc1cccc(NC(=O)c2cc(-c3cc(OC)c(OC)c(OC)c3)nc3ccccc23)c1 | 8.18 µM |
| COc1ccc2c(c1OC)C(=O)N1c3ccccc3C(=O)N(c3ccc(C(C)(C)C)cc3)C21 (centres undefined) | 5.55 µM |
| COc1ccc2c(c1OC)C(=O)N1c3ccccc3C(=O)N(Cc3cccc(Cl)c3)C21 (centres undefined) | 2.96 µM |
| COc1ccc(NC(=O)c2cc(-c3cc(OC)c(OC)c(OC)c3)nc3ccccc23)cc1 | 7.41 µM |
| COc1cc(-c2cc(C(=O)Nc3cccc(C)c3)c3ccccc3n2)cc(OC)c1OC | 18.8 µM (inactive) |
